Where “and” joins values, the source holds several entries; their conditions need not be identical. Equal entries are not always repeated.
Legend:
[1] = tested on: rats with diabetes and insulinopenia induced by streptozotocin; settings: streptozotocin-diabetic females after prolonged treatment (10 weeks), mated with healthy males; non-diabetic 100%; cited from earlier work
IRS2−/− female mice [2] = experiment: Implantation and pregnancy study after cross-breeding with IRS2wt male mice; assay type: in vivo
Description: (§1) Ten IRS2^−/− female mice of ages comprised between 6 and 8 weeks. Six “wild-type” (IRS2^wt) male mice of ages comprised between 6 and 8 weeks. The female and male mice were housed separately in normal conditions, i.e., a 12 h light/darkness cycle and controlled temperature and humidity. The animals were fed at will (also referred to as ad libitum) with a standard feed diet.
(§2) After an acclimatization period, the IRS2^−/− female mice were housed in groups of 4-6 mice/cage. Tungstate salt-free drinking water was administered to the animals during the pre-treatment phase (2 weeks).
(§3) Sodium tungstate was administered in the drinking water (ad libitum) by means of a solution of 2 mg/ml of sodium tungstate dihydrate (marketed by Carlo Erba) in distilled water after the pre-treatment phase (day 0 of treatment) and up to 4 weeks before sacrificing the animals. The daily dose of sodium tungstate ingested by the mice was about 180 mg/kg of body weight.
After the first three weeks of treatment, the IRS2^−/− female mice were housed in cages in pairs together with a IRS2^wt male mouse continuously.
The mice were observed daily to look for signs of pregnancy or birth.
After 4 weeks, the male mice were exchanged between the cages and they were kept therein for another 4 weeks.
The administration of tungstate was maintained for 8 weeks in which male and female mice were housed together. After these 8 weeks, treatment was withdrawn and the male and female mice were housed together for 4 additional weeks.
After this period, the female mice were sacrificed and biopsy was carried out to look for indications of pregnancy.
After the cross-breeding period of the method of section B, the female mice were sacrificed and biopsies were carried out to look for indications of pregnancy.

[3] = tested on: HEC1-A endometrial cell line and JEG-3 trophectoderm cell line; experiment: In vitro endometrial embryonic adhesion study (JEG-3 spheroids on HEC-1A monolayer); assay type: cell-based, human; settings: for Absolute adhesion rate / Absolute adhesion rate, Mean: HEC-1A treated 24 hours (sodium tungstate 10 μM); for Absolute adhesion rate: adhesion after 60 minutes; for Embryonic adhesion versus untreated HEC-1A cells (in words): HEC-1A treated 24 hours; for Absolute adhesion rate, Mean: Mean of Exp 1-3, baseline 30%
Text: An “in vitro” human-human embryonic adhesion model made up the HEC1-A endometrial cell line and the JEG-3 trophectoderm cell line was used to determine the effect of sodium tungstate on endometrial receptivity.
The use of in vitro models, and specifically the model based on the mentioned cell lines (HEC-1A and JEG-3), is considered a standard model for studying endometrial receptivity and particularly the adhesion the trophoblast to the endometrium (Fertility and Sterility 2011; 96, 522-529; Methods in Enzymology 2006; 420:3-18 or FASEB J. 201; 26:3715-3727).
The JEG-3 cell line which simulates the trophectoderm cells of a human embryo are cells that grow in monolayers in laboratory using low adherence plates and are capable of forming spheroids simulating the human embryo; this is one of the most widely used cell lines for conducting in vitro embryonic adhesion assay.
The cell lines were commercially purchased (American Type Culture Collection (ATCC); Rockville, Md., USA) for conducting the endometrial embryonic adhesion experiments. They were thawed and expanded in 4 passes for obtaining sufficient cells to perform all the assays.
The HEC1-A cells were plated in 24-well plates and cultured with McCoy 5A culture medium supplemented with 10% fetal bovine serum and 0.1% antibiotics (fungizone and penicillin), until reaching 90% confluence. After reaching the confluence, there was added to the culture medium sodium tungstate at a final concentration of 10 μM, as well as Withaferin A (as a control, a compound that prevents embryonic adhesion) or culture medium (baseline adhesion data), without any additional component, for 24 hours.
The JEG-3 cells were plated in low adherent plates with Eagle's minimal essential medium (EMEM) culture medium supplemented with 10% fetal bovine serum and 0.1% antibiotics (fungizone and penicillin). Twenty-four hours before the adhesion assay, the JEG-3 trophoblast spheroids were formed from this culture. To that end, JEG-3 cells in the medium described above were suspended in an Erlenmeyer flask under stirring at a concentration of 6×10^5 cells/6 ml. The resulting spheroids were collected for the adhesion assay.
For the adhesion assay, 24 hours after culturing the HEC-1A cells with culture medium adding sodium tungstate, Withaferin A or without adding any treatment, the culture medium was changed with fresh culture medium without treatments under study. The trophectoderm spheroids were added onto the monolayer of HEC-1A cells, placing 6 to 10 spheroids per well. The adhesion of the spheroids was measured after 60 minutes, counting spheroid that was floating in the culture medium as non-adhered spheroid and spheroid that was not floating as adhered spheroid. The examination was conducted with an inverted microscope (Nikon Diaphot 300; Nikon Corp., Tokyo, Japan). The assay was conducted in triplicate.

IRS2−/− female mice [4] = experiment: Ovulation study: phase of the estrous cycle in vaginal smears (Papanicolau); assay type: in vivo; parameters: key to Phase of the estrous cycle in vaginal smear: A: Anestrus; D: Diestrus; P: Proestrus; E: Estrus; M: Metestrus; settings: for Phase of the estrous cycle in vaginal smear: individual IRS2−/− female mice, dihydrate
Text: The mouse model used for determining the activity of tungsten (VI) salts for favoring normal reproduction and fertility is an Irs2 gene knock-out mouse, IRS2^−/−[Burks et. al., “IRS-2 pathways integrate female reproduction and energy homeostasis”, Nature, 2000, vol. 407, pp. 377-382]. Irs2 gene deletion translates into a clear sexual dimorphism in relation to fertility and carbohydrate metabolism.
The male mice of this model have insulin resistance and severe hyperglycemia that started at an early age. In contrast, the female mice remain relatively euglycemic at an early age and develop slight insulin resistance which remains until a later age (4-5 months). IRS2^−/− female mice at an early age, about 10 weeks old, show a low follicular development and persistent anovulation, accompanied by the absence of estrous cycle in most mice. The pregnancy rate in IRS2^−/− female mice is 9% compared to the rate of 100% in IRS^wt (IRS-2^−/− wild type) female mice. Given that female mice at these ages remain euglycemic and that they only develop slight insulin resistance, the profound impairment in fertility is not a direct result of anomalies in glucose metabolism.
as §1, §2, §3
During the pre-treatment period and during the first 3 weeks of treatment, vaginal smears were performed in 6 randomly chosen female mice on days −8; −5; −2; −1; 7; 8; 14; 15 and 22, to determine the phase of the estrous cycle they were in.
Between […] of saline solution was introduced into the vagina of the mice with a Pasteur pipette. Vaginal exudate was collected with the same pipette and spread on a slide. Once air-dried, it was fixed and stained with the Papanicolau technique.
The Papanicolau technique comprises staining the vaginal smears fixed on the slide in the following manner: • 10 immersions in 50% v/v alcohol; • Immersing in Harris hematoxylin solution for 3 minutes; • Rinsing with running water; • 10 immersions in acid alcohol (1% hydrochloric acid); • Rinsing with running water; • 10 immersions in 95% v/v alcohol; • Immersing in OG-6 solution for 30 seconds; • 10 immersions in 96% v/v alcohol; • Immersing in eosin solution for 1 minute; • 10 immersions in 96% v/v alcohol; • 10 immersions in 86% v/v alcohol; and • 10 immersions in xylol
The preparations were analyzed by trained staff using a coding in a single-blind manner for eliminating observer bias.
The samples were identified in the following phases: diestrus, proestrus, estrus, metestrus, anestrus or non-evaluable. The cyclical nature of the four phases in periods of 4 to 6 days are indicative of a normal estrous cycle, whereas the absence of this cyclical nature and the persistence in anestrus, diestrus or proestrus phases are indicative of the absence of estrous cycle.

[5] = individual treated IRS2−/− female mice, dihydrate

| Structure (SMILES) | Percentage of births with respect to the number of positive curettages [1] [%] | Pregnancy rate (IRS2−/− female mice [2]; IRS2−/− female mice treated with tungstate (untreated 9%)) [%] | Pregnancy (IRS2−/− female mice [2]; individual treated IRS2−/− female mice, 2 mg/ml in drinking water, cross-bred with IRS2wt males, dihydrate) | Number of embryos implanted or young born (embryos implanted) (IRS2−/− female mice [2]; [5]) | Number of embryos implanted or young born (young born) (IRS2−/− female mice [2]; [5]) | Mean of young/implanted embryos per pregnant female mouse (IRS2−/− female mice [2]; treated IRS2−/− female mice) | Absolute adhesion rate ([3]; Exp 1, baseline 12%) [%] | Absolute adhesion rate ([3]; Exp 2, baseline 48%) [%] | Absolute adhesion rate ([3]; Exp 3, baseline 31%) [%] | Embryonic adhesion versus untreated HEC-1A cells (in words) [3] | Absolute adhesion rate, Mean [3] [%] | Phase of the estrous cycle in vaginal smear (IRS2−/− female mice [4]; day 7 of treatment, 2 mg/ml sodium tungstate dihydrate in drinking water (about 180 mg/kg/day)) | Phase of the estrous cycle in vaginal smear (IRS2−/− female mice [4]; day 8 of treatment, 2 mg/ml in drinking water) | Phase of the estrous cycle in vaginal smear (IRS2−/− female mice [4]; day 14 of treatment, 2 mg/ml in drinking water) | Phase of the estrous cycle in vaginal smear (IRS2−/− female mice [4]; day 15 of treatment, 2 mg/ml in drinking water) | Phase of the estrous cycle in vaginal smear (IRS2−/− female mice [4]; day 22 of treatment, 2 mg/ml in drinking water) | Analyzed mice with recovery of the estrous cycle (IRS2−/− female mice [4]; on the seventh day of treatment, infertile, non-diabetic IRS2−/− female mice) [%] |
| --- | --- | --- | --- | --- | --- | --- | --- | --- | --- | --- | --- | --- | --- | --- | --- | --- | --- |
| O.O.[Na+].[Na+].[O]=[W](=[O])([O-])[O-] [sodium tungstate, sodium tungstate dihydrate] | 66 | 80 | YES | 7 embryos (3×) and 6 embryos | 3 young and 8 young (2×) and 1 young | about 5 | 31 | 65 | 35 | higher percentage of embryonic adhesion | 44 | M and E (4×) and E-M | M and E-M (3×) and E (2×) | E and E-M (3×) and D | D and E (2×) and M (2×) and A | D (2×) and A (2×) and M and P | 100 |
| CC1=C(CO)C(=O)O[C@@H]([C@@H](C)[C@H]2CC[C@H]3[C@@H]4C[C@H]5O[C@]56[C@@H](O)C=CC(=O)[C@]6(C)[C@H]4CC[C@]23C)C1 [Withaferin A, reference compound] |  |  |  |  |  |  | 0 | 0 | 0 | No adhesion whatsoever | 0 |  |  |  |  |  |  |
